According to US20040197333A1, “Use of TGF-beta antagonists to inhibit tumor cell formation or progression” (Cornell Research Foundation, Inc., priority 2000, published 2004):

Tested on: A-549 cells
Test: Scanning electron microscopy of cell morphology (invasive phenotype)
Type: cell-based, human
Details: 2ngm^−1 recombinant TGF-β1 protein
Text: Scanning electron microscopy. […] Cells were fixed with PBS, pH 7.4, containing 2.0% glutaraldehyde, and processed as previously described (Ref 17). Samples were examined using a JEOL 25SIII electron microscope.
A-549 cells express functional receptors for TGF-β, and their growth and functions are regulated by TGF-β (refs. 7 and 8). The experiments with A-549 cells were established ex vivo to avoid any confounding effects of CsA-associated inhibition of in vivo immune surveillance mechanism(s).

For “recombinant TGF-β1 protein: recombinant TGF-β1 protein added to A-549 cells”, the “morphological alterations in A-549 cells” value was “induced morphological alterations in A-549 cells that were similar to those elicited by CsA”.
